Reference: US20240132449A1, “HETEROCYCLIC COMPOUNDS AND METHODS OF USE THEREOF” (1cBio, Inc., priority 2022, published 2024)
Counter-ions that a name gives are not always drawn.

What was measured:
[1] = system: DLD-1 BRCA2(−/−) colorectal adenocarcinoma cells; assay: Cell viability assay (Cell Titer-Glo), DLD-1 BRCA2(−/−); format: cell-based; details: Homo sapiens, DLD-1, 168 h; 7 days incubation, 200 cells/well
Protocol: (§1) Compounds of the present disclosure were tested for their effects on the viability of cancer cells. DLD-1 wild-type and DLD-1 BRCA2(−/−) colorectal adenocarcinoma cells, an isogenic pair of cell lines differing in the presence and absence, respectively, of both BRCA2 alleles, were used. The cells were harvested during the logarithmic growth period, counted, and seeded at 50 cells/well for DLD-1 wild-type and 200 cells/well for DLD-1 BRCA2(−/−) in a 384-well cell culture plate. After seeding, cells were incubated at 37° C., 5% CO2 overnight. Cells were treated with serially diluted test compounds at 10 concentrations (e.g., from 1.5 nM-30 μM) for generation of dose response curves, or at a single concentration. The plate was further incubated for another 7 days in a humidified incubator at 37° C. and 5% CO2. Cell viability was assessed by luminescence measurement after addition of Cell Titer-Glo reagent (Promega, Madison, Wis.) according to the manufacturer's instructions. Cell viability IC50 values were calculated using XLFit, equation 201: y=A+((B−A)/(1+((x/C)^D))), where A=bottom, B=top, C=IC50, and D=slope. IC50 values are shown in Table B and are presented in ranges, in which “+++”<300 nM, 300 nM≤“++”<3000 nM, and “+”≥3000 nM. Values for percent inhibition at 10 μM are also shown in Table B and are presented in ranges, in which “***”≥67%, 33%≤“**”<67%, and “*”<33%. Effects of the test compounds on the viability of other cell lines such as MDA-MB-436, MDA-MB-231, SUM149PT, HCC1395, and UWB1.289 are determined in an analogous method.

[2] = system: DLD-1 wild-type colorectal adenocarcinoma cells; assay: Cell viability assay (Cell Titer-Glo), DLD-1 wild-type; format: cell-based; details: Homo sapiens, DLD-1, 168 h, 7 days incubation; for inhibition at 10 µM: read-out: DLD-1 wild-type % inh at 10 μM; for IC50: 50 cells/well
Protocol: as §1

PARP1 = PARP1 (Homo sapiens, UniProt P09874); assay: PARP1 fluorescence polarization binding assay; details: binding IC50, GST-tagged PARP1 20 nM, PARPi-FL 3 nM
Protocol: Compounds of the present disclosure were tested in a PARP1 fluorescence polarization binding assay at Pharmaron (Beijing, P.R.China). In this biochemical assay, binding of test compound to recombinant human PARP1 reduces the amount of binding of a fluorescent probe, and consequently reduces the detected level of fluorescence polarization. Test compound stock solutions were prepared in DMSO and then serially diluted into 10 concentrations by 3-fold dilution in a 384-well plate using a TECAN EVO200. 60 nL of each dilution was transferred to the plate using an Echo550 (Labcyte), and then 10 μL 40 nM GST-tagged PARP1 (BPS Bioscience, Cat #80501), diluted in assay buffer (50 mM Tris pH 8.0, 0.001% Triton X-100, 10 mM MgCl2, 150 mM NaCl), was added to the plate. After a centrifugation at 1000 rpm for 1 min, the assay plate was incubated for 30 min at RT. 10 μL 6 nM PARPi-FL (TOCRIS, Cat #6461), diluted using assay buffer, was then added to the plate. The final concentrations of PARP1 and PARPi-FL were 20 nM and 3 nM, respectively, in a total volume of 20 μL. After a centrifugation at 1000 rpm for 1 min, the assay plate was incubated for 4 h at RT. Samples in each well were read using an Envision instrument (Perkin-Elmer; Ex=480 nm Em=FITC FP-P pol 535 nm & FITC FP-S pol 535 nm). Percent inhibition was calculated from mP values using Inhibition (%)=[1−(mPc−mPL)/(mPH−mPL)]×100%, where mPc, mPL, and mPH are the mP values of test compound, Low controls, and High controls, respectively. Binding IC50 values were calculated using XLFit (equation 201: y=A+((B−A)/(1+((x/C)^D))), where A=bottom, B=top, C=IC50, and D=slope) with a floating top and bottom for curves. Binding IC50 values are shown in Table A and are presented in ranges, in which “+++”<100 nM, 100 nM≤“++”<3000 nM, and “+”≥3000 nM.

recombinant human PARP2 = recombinant human PARP2 (Homo sapiens, UniProt Q9UGN5); assay: PARP2 fluorescence polarization binding assay; details: for IC50: binding IC50, GST-tagged PARP2 20 nM, PARPi-FL 3 nM; for inhibition at 10 µM: read-out: PARP2 % inh at 10 μM
Protocol: Compounds of the present disclosure were tested in a PARP2 fluorescence polarization binding assay at Pharmaron (Beijing, P.R. China). In this biochemical assay, binding of test compound to recombinant human PARP2 reduces the amount of binding of a fluorescent probe, and consequently reduces the detected level of fluorescence polarization. Test compound stock solutions were prepared in DMSO and then serially diluted into 10 concentrations by 3-fold dilution in a 384-well plate using a TECAN EVO200. Alternatively, a single concentration was prepared. 60 nL of each dilution was transferred to the plate using an Echo550 (Labcyte), and then 10 μL 40 nM GST-tagged PARP2 (BPS Bioscience, Cat #80502), diluted in assay buffer (50 mM Tris pH 8.0, 0.001% Triton X-100, 10 mM MgCl2, 150 mM NaCl), was added to the plate. After a centrifugation at 1000 rpm for 1 min, the assay plate was incubated for 30 min at RT. 10 μL 6 nM PARPi-FL (TOCRIS, Cat #6461), diluted using assay buffer, was then added to the plate. […] After a centrifugation at 1000 rpm for 1 min, the assay plate was incubated for 4 h at RT. Samples in each well were read using an Envision instrument (Perkin-Elmer; Ex=480 nm Em=FITC FP-P pol 535 nm & FITC FP-S pol 535 nm). […] Binding IC50 values were calculated using XLFit (equation 201: […])^D))), where A=bottom, B=top, C=IC50, and D=slope) with a floating top and bottom for curves.

recombinant human PARP2, sequence (Q9UGN5 whole entry): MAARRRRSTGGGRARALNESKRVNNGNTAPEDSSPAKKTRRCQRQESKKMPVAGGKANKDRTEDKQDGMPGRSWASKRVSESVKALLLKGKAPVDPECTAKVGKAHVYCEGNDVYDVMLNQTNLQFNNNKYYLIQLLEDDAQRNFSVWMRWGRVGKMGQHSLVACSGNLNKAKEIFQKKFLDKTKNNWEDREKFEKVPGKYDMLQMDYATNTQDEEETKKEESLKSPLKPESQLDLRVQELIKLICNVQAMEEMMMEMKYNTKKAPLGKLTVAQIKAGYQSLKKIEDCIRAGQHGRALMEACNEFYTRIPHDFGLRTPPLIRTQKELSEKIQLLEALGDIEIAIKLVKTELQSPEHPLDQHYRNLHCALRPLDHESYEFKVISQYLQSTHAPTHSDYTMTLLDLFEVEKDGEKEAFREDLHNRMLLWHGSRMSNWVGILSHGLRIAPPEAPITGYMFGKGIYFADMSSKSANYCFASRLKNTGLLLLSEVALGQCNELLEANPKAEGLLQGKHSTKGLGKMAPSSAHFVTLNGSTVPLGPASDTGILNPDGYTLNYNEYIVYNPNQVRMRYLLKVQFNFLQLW
PARP1, sequence (P09874 whole entry): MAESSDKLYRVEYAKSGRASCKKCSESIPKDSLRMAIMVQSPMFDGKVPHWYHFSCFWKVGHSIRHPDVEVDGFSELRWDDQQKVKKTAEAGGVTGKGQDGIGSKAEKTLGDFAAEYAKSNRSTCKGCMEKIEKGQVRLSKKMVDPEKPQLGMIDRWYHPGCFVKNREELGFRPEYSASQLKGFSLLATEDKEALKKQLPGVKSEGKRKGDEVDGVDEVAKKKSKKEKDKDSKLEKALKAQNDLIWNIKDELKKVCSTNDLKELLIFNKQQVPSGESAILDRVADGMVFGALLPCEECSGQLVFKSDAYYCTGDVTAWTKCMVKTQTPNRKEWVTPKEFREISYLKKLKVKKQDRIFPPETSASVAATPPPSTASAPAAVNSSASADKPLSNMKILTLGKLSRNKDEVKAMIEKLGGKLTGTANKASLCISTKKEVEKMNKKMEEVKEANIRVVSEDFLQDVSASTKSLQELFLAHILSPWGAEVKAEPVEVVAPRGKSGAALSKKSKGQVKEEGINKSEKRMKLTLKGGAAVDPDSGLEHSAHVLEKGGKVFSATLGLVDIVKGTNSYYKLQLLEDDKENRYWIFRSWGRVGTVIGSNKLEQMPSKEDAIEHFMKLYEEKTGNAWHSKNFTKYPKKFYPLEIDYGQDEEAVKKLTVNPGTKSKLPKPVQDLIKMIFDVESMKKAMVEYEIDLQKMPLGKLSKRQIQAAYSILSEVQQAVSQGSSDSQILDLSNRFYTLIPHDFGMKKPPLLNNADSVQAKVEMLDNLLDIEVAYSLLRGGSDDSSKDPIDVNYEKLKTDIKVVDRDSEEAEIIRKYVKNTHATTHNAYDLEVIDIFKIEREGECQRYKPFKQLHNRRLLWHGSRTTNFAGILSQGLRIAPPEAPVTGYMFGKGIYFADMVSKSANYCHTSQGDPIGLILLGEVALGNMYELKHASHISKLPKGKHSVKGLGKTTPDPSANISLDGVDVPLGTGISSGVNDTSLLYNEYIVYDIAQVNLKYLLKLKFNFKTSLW

SMILES | IC50 [1] [nM] | inhibition at 10 µM [2] [%] | IC50 [2] [nM] | IC50 (PARP1) [nM] | IC50 (recombinant human PARP2) [nM] | inhibition at 10 µM (recombinant human PARP2) [%]
CCn1c(=O)[nH]c2cc(CN3CC4(C3)CN(c3ccc(C(=O)NC)nc3)C4)ccc2c1=O [Compound 100, 5-{6-[(3-ethyl-2,4-dioxo-1,2,3,4-tetrahydroquinazolin-7-yl)methyl]-2,6-diazaspiro[3.3]heptan-2-yl}-N-methylpyridine-2-carboxamide hemiformate] | > 3000 | < 33 | > 3000 | 100 to 3000 | > 3000 | 33 to 67
CCn1c(=O)[nH]c2c(F)c(CN3CCN(c4ccc(C(=O)NC)nc4C)CC3)ccc2c1=S [Compound 184, 5-(4-((3-ethyl-8-fluoro-2-oxo-4-thioxo-1,2,3,4-tetrahydroquinazolin-7-yl)methyl)piperazin-1-yl)-N,6-dimethylpicolinamide] | < 300 | 33 to 67 | > 3000 | < 100 | > 3000 | 33 to 67
CCN1Cc2ccc(CN3CCN(c4ccc(C(=O)NC)nc4C)CC3)cc2NC1=O [Compound 202, 5-{4-[(3-ethyl-2-oxo-1,4-dihydroquinazolin-7-yl)methyl]piperazin-1-yl}-N,6-dimethylpyridine-2-carboxamide] | < 300 | < 33 | > 3000 | < 100 |  | 33 to 67
CCN1Cc2ccc(CN3CCN(c4ccc(F)cc4F)CC3)cc2NC1=O [Compound 225, 7-{[4-(2,4-difluorophenyl)piperazin-1-yl]methyl}-3-ethyl-1,4-dihydroquinazolin-2-one] | > 3000 | < 33 | > 3000 | < 100 |  | 33 to 67
CCn1c(=O)[nH]c2cc(CN3CCN(c4ccc(F)cc4F)CC3)ccc2c1=O [Compound 226, 7-{[4-(2,4-difluorophenyl)piperazin-1-yl]methyl}-3-ethyl-1H-quinazoline-2,4-dione formate] | > 3000 | < 33 | > 3000 | < 100 |  | 33 to 67
CCn1c(=O)[nH]c2cc(CN3CCN(c4ccc(C(=O)NC)cc4F)CC3)sc2c1=O [Compound 232] | > 3000 | < 33 | > 3000 | < 100 | > 3000 | 33 to 67
CCC(=O)c1ccc(N2CCN(Cc3cc4[nH]c(=O)n(CC)c(=O)c4s3)CC2)c(C)n1 [Compound 326, 3-ethyl-6-((4-(2-methyl-6-propionylpyridin-3-yl)piperazin-1-yl)methyl) thieno[3,2-d]pyrimidine-2,4(1H,3H)-dione formate] | > 3000 | < 33 | > 3000 | < 100 | > 3000 | 33 to 67
CCn1c(=O)[nH]c2cc(CN3CCN(c4cnc5c(NC)nccc5c4)CC3)sc2c1=O [Compound 360, 3-ethyl-6-((4-(8-(methylamino)-1,7-naphthyridin-3-yl)piperazin-1-yl)methyl)thieno[3,2-d]pyrimidine-2,4(1H,3H)-dione formate] | > 3000 | 33 to 67 | > 3000 | < 100 | > 3000 | 33 to 67
CCn1c(=O)[nH]c2cc(CN3CCC(c4ccc(C(=O)NC)nc4C)CC3)ccc2c1=S [Compound 498, 5-(1-((3-ethyl-2-oxo-4-thioxo-1,2,3,4-tetrahydroquinazolin-7-yl)methyl)piperidin-4-yl)-N,6-dimethylpicolinamide formate] | > 3000 | 33 to 67 | > 3000 | < 100 | > 3000 | 33 to 67
